pEC50, pIC50: −log10 of the molar value. Like-named read-outs stand apart in the source and are kept apart here.
Assays:
[1] = system: glial cell cultures (HTB14); assay: cells; settings: Homo sapiens, read-out: 50% Effective dose (protection against 3-AP)
focal cerebral ischemia = settings: for volume of brain tissue infarcted vs vehicle-treated controls: i.p. beginning 15 minutes after onset of ischemia, total dose PICVA-25 and PICVA-27 200 mg/kg, PICVA-13 400 mg/kg
[2] = system: glial cell cultures (HTB14); assay: Toxicity of test compounds in parallel glial cultures incubated without 3-AP; format: cell-based, human; settings: Table V; HTB14, parallel cultures without 3-AP
Experimental: In an alternative embodiment of the screening assay of Example 3, various concentrations of the test compound (e.g. 10-1000 μM) are incubated with the indicator cells in presence of a fixed concentration fo 3-AP (e.g, 200 μM).

[3] = system: cultured hippocampal neurons; assay: NMDA neurotoxicity in cultured hippocampal neurons (trypan blue); format: cell-based
Experimental: When aminoguanidine was added to primary neuronal cultures treated with N-methy-D-aspartic acid (NMDA), no attenuation of cytotoxicity was observed (Table III). […] Cultured hippocampal neurons (12-15 days in vitro) were exposed to NMDA (500 μM) for 5 min in MEM (without serum) supplemented with glutamine (100 μM) and glycine (10 μM), rinsed in Earle's Basic Salt Solution, and incubated under standard conditions for 24 hr (37° C.). Neuronal survival was assessed microscopically, by counting a sample of cell somas for uptake vs. exclusion of trypan blue. Aminoguanidine or the non-competitive excitatory amino acid receptor antagonist, MK-801, was added just prior to NMDA and in the final rinse at the concentrations shown. Data are mean±s.e. of nine wells from three replicate experiments.

[4] = system: glial cell cultures (HTB14); settings: for inhibition of 3-aminopropanal-induced cell death: HTB14, 3 hours pretreatment, then 3-aminopropanal 5 hours, MTT
rat brain cortex = settings: for cell necrosis and apoptosis at the injection zone (eosin, TUNEL staining): intracortical microinjection, histology 24 hr; for protection against spermine-mediated intracortical damage, systemic administration: i.p. treatment, intracortical spermine 25 μg, infarct volume 48 hr
[5] = system: neuronal cell cultures (HTB11); settings: HTB11 cells, overnight incubation
polyamine oxidase = assay: Polyamine oxidase activity in ischemic brain homogenates (conversion of added spermine, HPLC); format: biochemical, rat; settings: for polyamine oxidase activity in ischemic brain homogenate (FIG. 1): 1 mM added 5 minutes prior to spermine; for pIC50: homogenates of ischemic brain, inhibitor added 5 minutes prior to spermine, read-out: I.C.50 for polyamine oxidase activity
Experimental: To measure tissue polyamine oxidase activity, brain homogenates were prepared from the anatomic region perfused by the middle cerebral artery, and total polyamine oxidase activity determined using a method described previously (Seiler and Bolkenius, Neurochem. Res. 10:529-544, 1985; Seiler et al., Med. Biol. 59:334-346, 198 1; and […] et al., J. Neurosci. Res. 28:434-441, 1991), relying on the metabolic conversion of added spermine.

glial cells (HTB14) = assay: Apoptosis detection in glial cells (TUNEL flow cytometry, DNA fragmentation); format: cell-based, human; settings: for development of TUNEL-positivity in 3-aminopropanal-treated glial cells: iNOS inhibitor added, cytofluorography
Experimental: (§1) Additional evidence of apoptosis by flow cytometric detection of DNA strand breaks was obtained using the terminal deoxynucleotidyl taansferase mediated dUTP nick end labeling TUNEL) method (Gavrieli et al., J. Cell. Biol 119:493-501, 1992). Terminal deoxynucleotidyl transferase mediated dUTP nick end labeling (TUNEL) staining was performed on cell cultures treated with 3-aminopropanal, as indicated. Cells were harvested and collected by centrifugation at 1,500 rpm for 5 min. The pellets were fixed with 1×ORTHO Permeafix (Orthodiagnostics) at room temperature for 40 min. After washing with Dulbecco's phosphate-buffered saline containing 1% bovine serum albumin (PBS-BSA), cells were stained by the TUNEL method using the Oncor Apop Tag Direct Fluorescein kit (Oncor), in accordance with the manufacturer's instructions. A negative control was performed by preparing a reaction solution that was devoid of TdT. A Becton Dickinson flow cytometer was used for all analyses; five to ten thousand events (ungated) were collected according to a single color procedure.
(§2) DNA samples from HTB11 or HTB14 cells (20-30×10^6 cells) were assayed for strand breakage by resuspending harvested cells (treated with 3-AP or control) in a reaction buffer containing proteinase K, and incubating overnight at 55° C. RNase was added to a final concentration of […] and the samples were incubated at 37° C. for one hour. DNA was extracted three times with phenol/chloroform and twice with chloroform and precipitated in two volumes of chilled 100% ethanol and 0.3M sodium acetate (pH 5.2). The DNA was resuspended in 50 μl of dH2O, fractionated by 1.5% agarose gel electrophoresis, and stained with SYBR Green I nucleic acid stain (Molecular Probes).
(§3) There was also no evidence of apoptosis as measured with Annexin V, a method used to detect loss of cell membrane phospholipid asymmetry that has be associated with apoptosis. Annexin V/propidium iodide (PI) staining was performed using a kit in accordance to the manufacturer's instructions (Me Apoptosis Detection Kit, R&D Systems, Minneapolis). Cells were analyzed by flow cytometry within one hour of completion of staining. The AnnexinV-FITC and PI signals were quantitated independently according to a two-color flow cytometric procedure.

iNOS = molecular target: T1, iNOS (Mus musculus, UniProt P29477); assay: iNOS activity in RAW 264.7 cell lysates; format: biochemical; settings: 1 mM
T1 construct: iNOS activity measured in RAW 264.7 cell lysates; endogenous in cells; host or cells: RAW 264.7 cell lysates

[6] = system: primary rat astroglial cell cultures; assay: 3-aminopropanal cytotoxicity in primary astroglial cultures; format: cell-based
[7] = system: intracerebral TNF synthesis; assay: Intracerebral TNF synthesis after central administration; format: in vivo; settings: centrally administered; data not illustrated
[8] = system: neuronal cell cultures (HTB11); assay: Apoptosis and cell death detection in neuronal cells (TUNEL, Annexin V, DNA electrophoresis, scatter analysis); format: cell-based, human; settings: for induction of apoptosis in neuronal cells: HTB11, TUNEL, Annexin V, camptothecin 15 μg/ml for 20 hr
Experimental: as §1
as §2, with “The DNA was resuspended in 50 μl of dH2O, fractionated by 1.5% agarose gel electrophoresis, and stained with SYBR Green I nucleic acid stain (Molecular Probes).” left out
as §3, with “Annexin V/propidium iodide (PI) staining was performed using a kit in accordance to the manufacturer's instructions (Me Apoptosis Detection Kit, R&D Systems, Minneapolis).” left out

[9] = with NMDA (500 μM) 5 min, MK-801 20 μM or aminoguanidine 1000 μM, 24 hr
[10] = 25 μg in 2 μl intracortical, assessed 48 hr later

T1 sequence (P29477 whole entry): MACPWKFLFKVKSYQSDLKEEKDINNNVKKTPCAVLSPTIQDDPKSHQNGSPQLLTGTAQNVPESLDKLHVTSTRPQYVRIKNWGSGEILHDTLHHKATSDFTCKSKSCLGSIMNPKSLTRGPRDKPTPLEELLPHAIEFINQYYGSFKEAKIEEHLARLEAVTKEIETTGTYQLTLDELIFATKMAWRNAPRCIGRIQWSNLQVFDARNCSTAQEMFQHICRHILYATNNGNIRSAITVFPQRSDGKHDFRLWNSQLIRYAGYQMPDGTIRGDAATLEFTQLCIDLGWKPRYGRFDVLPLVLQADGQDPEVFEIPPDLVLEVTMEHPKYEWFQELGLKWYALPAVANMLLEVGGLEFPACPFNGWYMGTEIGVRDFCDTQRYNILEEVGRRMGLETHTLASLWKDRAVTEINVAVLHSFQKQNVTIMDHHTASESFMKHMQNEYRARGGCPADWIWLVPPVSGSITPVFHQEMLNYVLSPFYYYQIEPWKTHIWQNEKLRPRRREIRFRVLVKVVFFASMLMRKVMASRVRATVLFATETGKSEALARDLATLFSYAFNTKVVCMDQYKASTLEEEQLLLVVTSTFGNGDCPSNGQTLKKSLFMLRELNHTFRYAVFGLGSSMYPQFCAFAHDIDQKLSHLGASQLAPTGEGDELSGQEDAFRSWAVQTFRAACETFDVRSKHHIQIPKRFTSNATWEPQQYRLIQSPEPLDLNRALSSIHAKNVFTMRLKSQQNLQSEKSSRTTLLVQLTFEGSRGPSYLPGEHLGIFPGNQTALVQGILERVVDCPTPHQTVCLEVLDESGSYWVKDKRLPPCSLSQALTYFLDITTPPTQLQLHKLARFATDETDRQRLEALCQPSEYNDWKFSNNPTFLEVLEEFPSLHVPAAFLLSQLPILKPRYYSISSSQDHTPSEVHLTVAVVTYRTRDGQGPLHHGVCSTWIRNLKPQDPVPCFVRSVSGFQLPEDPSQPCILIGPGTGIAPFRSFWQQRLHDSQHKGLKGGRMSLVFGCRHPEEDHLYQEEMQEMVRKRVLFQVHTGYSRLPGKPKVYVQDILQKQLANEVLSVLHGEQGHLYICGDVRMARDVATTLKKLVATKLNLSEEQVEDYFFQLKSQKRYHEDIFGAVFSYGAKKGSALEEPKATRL

Which results are given for `O=C(C[n+]1ccccc1)c1ccccc1.[Br-]` [p27a, N-(2-phenyl-2-oxoethyl)-pyridinium bromide]?
pEC50 [1]: 3.37; mortality associated with treatment in the in vivo screening tests (focal cerebral ischemia; Lewis, rat, in vivo): 25%; volume of brain tissue infarcted vs vehicle-treated controls (focal cerebral ischemia): significantly reduced; 50% Toxic dose [2]: 5 mM

How did the “Neurotoxicity (% dead)” value [3, 9] turn out when `C[C@]12N[C@H](Cc3ccccc31)c1ccccc12` [MK-801] was run?
Its value is 8 ± 3 % dead.

Ac-DEVD-CHO was tested. Which “inhibition of 3-aminopropanal-induced cell death” value [4] did it give?
Its value is “not”.

Which “brain damage after intracortical microinjection (TTC staining)” value (“brain damage” for short) (rat brain cortex; [10]) does the source give for `NCCCCNCCCN` [spermidine] here?
The value was “brain tissue damage”.

`NCCCNCCCCNCCCN` [spermine] was tested. Which “cell necrosis and apoptosis at the injection zone (eosin, TUNEL staining)” value (rat brain cortex) did it give?
Its value is “caused cell necrosis and apoptosis”.

What about the “brain damage” value (rat brain cortex; rat, in vivo) of the same compound?
The value was “brain tissue damage”.

How did the “brain damage” value (rat brain cortex; [10]) turn out when `NCCCCN` [putrescine] was run?
The value was “cell death was not observed”.

What about the “cell necrosis and apoptosis at the injection zone (eosin, TUNEL staining)” value (rat brain cortex) of the same compound?
Its value is “not observed”.

What does the source list for `N=C(N)NN` [aminoguanidine]?
LD50 for 3-aminopropanal in the presence of the PAO inhibitor vs without [5]: similar; protection against intracortical spermine-mediated cell death, intracortical administration (rat brain cortex; given intracortically simultaneously with spermine): conferred significant protection; protection against spermine-mediated intracortical damage, systemic administration (rat brain cortex): conferred significant protection; effect on direct cytotoxicity of intracortical 3-aminopropanal (rat brain cortex; intracortical 3-aminopropanal): failed to significantly attenuate; effect on spermine-induced cell necrosis and apoptosis (histology) (rat brain cortex; intracortical spermine): significantly inhibited; polyamine oxidase activity in ischemic brain homogenate (FIG. 1) (polyamine oxidase): inhibited; pIC50 (polyamine oxidase): 3.40; development of TUNEL-positivity in 3-aminopropanal-treated glial cells (glial cells (HTB14)): failed to attenuate; Neurotoxicity (% dead) [3, 9]: 79 ± 4 % dead; Neurotoxicity (% dead) ([3]; without NMDA, aminoguanidine 1000 μM alone): 7 ± 2 % dead

What does the source list for `CCN(CC)CCCC(C)Nc1ccnc2cc(Cl)ccc12` (stereo not shown) [chloroquine]?
systemic homeostatic responses to cerebral ischemia (blood pressure, heart rate, body temperature, arterial blood gases) (focal cerebral ischemia; rat, in vivo): did not significantly alter; protection against spermine-mediated intracortical damage, systemic administration (rat brain cortex): conferred significant protection; polyamine oxidase activity in ischemic brain homogenate (FIG. 1) (polyamine oxidase): inhibited; pIC50 (polyamine oxidase): 4.40; iNOS activity (iNOS): 11800±900 DPM/mg protein

Which “inhibition of 3-aminopropanal-induced cell death” value [4] does the source give for Ac-YVAD-CMK here?
The value was “conferred dose-dependent inhibition”.

With `O=C(C[n+]1ccsc1)c1ccccc1.[Br-]` [p25, 3-(2-phenyl-2-oxoethyl)-thiazolium bromide] as the compound, how does the “volume of brain tissue infarcted vs vehicle-treated controls” value (focal cerebral ischemia) read?
Its value is “significantly reduced”.

And the “mortality associated with treatment in the in vivo screening tests” value (focal cerebral ischemia; rats with focal cerebral ischemia)?
The value was 38%.

`O=C(O)c1cc(Br)c[n+](CC(=O)c2ccccc2)c1.[Br-]` [AP22, N-(2-phenyl-2-oxoethyl)-3-bromo-5-carboxypyridinium bromide] was tested. Which pEC50 [1] did it give?
Its pEC50 is 3.70.

And the “50% Toxic dose” value [2]?
Its value is 1 mM.

With `NC(=O)c1cc[n+](CC(=O)c2ccccc2)cc1C(N)=O` [AP21, N-(2-phenyl-2-oxoethyl)-3,4-dicarboxyamide-pyridinium bromide] as the compound, how does the pEC50 ([4]; read-out: 50% Effective dose (protection against 3-AP), Table V, HTB14, fixed 3-AP (e.g. 200 μM)) read?
Its pEC50 is 4.00.

Which “cytotoxic LD50” value [6] does the source give for `NCCC=O` [3-aminopropanal] here?
The value was 80 ± 9 µM.

And the “intracerebral TNF synthesis” value [7]?
The value was “directly stimulated”.

And the “cell necrosis and apoptosis at the injection zone (eosin, TUNEL staining)” value (rat brain cortex)?
The value was “both cellular necrosis and programmed cell death”.

What about the “brain damage” value (rat brain cortex; rat, in vivo) of the same compound?
Its value is “caused significant cytotoxicity”.

And the “induction of apoptosis in neuronal cells” value [8]?
Its value is “did not induce apoptosis”.

What about the “cell death by forward scatter/side scatter analysis” value ([8]; HTB11 neurons after 3-aminopropanal treatment) of the same compound?
Its value is 55.7%.

And the “glial cells stained TUNEL-positive” value (glial cells (HTB14); 13 hours of exposure to 275 μM)?
Its value is 76%.

What about the “apoptosis-specific DNA fragmentation” value (glial cells (HTB14); HTB-14 glial cells exposed to 3-aminopropanal) of the same compound?
Its value is “apoptosis-specific DNA fragmentation pattern was observed”.

With `CN[C@H](CC(=O)O)C(=O)O` [NMDA, N-methy-D-aspartic acid] as the compound, how does the “Neurotoxicity (% dead)” value ([3]; NMDA (500 μM) alone, 5 min exposure, 24 hr) read?
The value was 88 ± 4 % dead.

For `CC[C@@]1(O)C(=O)OCc2c1cc1n(c2=O)Cc2cc3ccccc3nc2-1` [camptothecin], which “induction of apoptosis in neuronal cells” value [8] is on record?
The value was “Apoptosis was induced”.

`CNC(=N)NCCC[C@H](N)C(=O)O` [L-NMMA, L-N^G-monomethylarginine] was tested. Which “development of TUNEL-positivity in 3-aminopropanal-treated glial cells” value (glial cells (HTB14)) did it give?
Its value is “failed to attenuate”.

From patent publication US6391899B1, “Compounds and compositions for treating tissue ischemia” (North Shore—Long Island Jewish Research Institute, priority 1998, dated 2002)
